# The source made the active and inactive calls.
# Legend:
# [1] = system: Streptococcus sp. 'group A'; assay: Streptococcus pyogenes SK(-)GAS viability under kanamycin – luminescence, BacTiterGlo, confirmation, counter-screen for streptokinase expression inhibitor project, dose response (AID 1900); type: functional, organism-based
# [2] = cells; type: functional, cell-based
# [3] = target: Photoreceptor-specific nuclear receptor (Homo sapiens, UniProt Q9Y5X4); type: functional, cell-based;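 also: CHO-S cells with Gal4-NCOR and VP16-NR2E3 two-hybrid luciferase reporter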
# [4] = system: INS1; assay: INS-1E survival protection against cytokine death – cell-based, luminescence, retest, dose response (AID 449756); type: functional; conditions: Rattus norvegicus;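 also: cell death triggered by IL-1 beta plus TNF-alpha plus IFN-gamma mixture; protective hits raise ATP signal compared with cytokine alone wells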
# [5] = target: Nonstructural protein 1 (Influenza A virus, UniProt Q194T2); type: functional, Influenza A virus (A/California/07/2009(H1N1))
# [6] = target: Serine/threonine-protein phosphatase PP1-alpha catalytic subunit (Homo sapiens, UniProt P62136); assay: inhibition of protein phosphatase 1 activity – biochemical, fluorescence, dose response (AID 2403);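 also: phosphatase turnover of OMFP into fluorescent 3-O-methylfluorescein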
# [7] = system: Streptococcus; assay: GAS UMAA2166 growth inhibition – luminescence, BacTiterGlo, counter-screen for streptokinase expression inhibitor project, dose response (AID 1915); type: functional, organism-based;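 also: potency for reduction of bacterial viability or growth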
# [8] = NIH3T3 cell viability loss – ATP luminescence, mouse fibroblasts, counter-screen, dose response (AID 2010); type: functional, cell-based;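 also: cells exposed to compound for about 90 hours before reading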
# [9] = cells; type: functional, cell-based; remark: listed apart in the source
# [10] = ATP-based viability loss in HeLa cells – cell-based, CellTiter-Glo luminescence, dry powder, set 2, cytotoxicity control, dose response (AID 720593); type: functional
# [11] = target: Serine/threonine-protein phosphatase (Homo sapiens, UniProt Q9BPW0); assay: Counterscreen for inhibitors of PP1: fluorescence-based biochemical high throughput dose response assay to identify inhibitors of Protein Phosphatase 5 (PP5). [Related pubchem assays: 2034 (Summary (PP5 inhibitors)), 1987 (PP5 inhibitors in singlate), 2235 (PP1 inhibitors in singlate)]
# [12] = Trypanosoma cruzi growth suppression in host cells – NIH3T3 host cells, beta-gal luminescence, confirmation (AID 2044); type: functional, cell-based;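 also: intracellular parasites grown in NIH/3T3 mouse fibroblasts as host cells; luminescent beta-galactosidase reporter signal from transgenic T. cruzi replicating inside host cells; inhibitors lower the luminescence signal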
# [13] = OVCAR8 cell viability loss – plate reader, dry powder samples, PAX8 project, dose response (AID 743197); type: functional, cell-based; conditions: OVCAR-8
# [14] = OVCAR4 cell viability loss – plate reader, dry powder, SA11, cytotoxicity control for PAX8 inhibitor project, dose response (AID 743150); type: functional, cell-based; conditions: OVCAR-4
# [15] = COV434 cell viability loss – plate reader, dry powder, SA7, cytotoxicity control for PAX8 inhibitor project, dose response (AID 743145); type: functional, cell-based
# [16] = inhibitors acting on PAX2 in cells – cell-based, plate reader, dry powder samples, selectivity assay for PAX8 inhibitor project, dose response (AID 743048); type: functional;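 also: HEK293 cells carrying a WT1 promoter luciferase reporter driven by expressed Pax2; potency is for inhibition of Pax2 driven reporter signal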
# [17] = PAX5 cellular inhibition readout – cell-based, plate reader, dry powder samples, selectivity assay for PAX8 inhibitor project, dose response (AID 743047); type: functional;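 also: HEK293 cells carrying a Pax5 driven CD19 promoter luciferase reporter; potency of inhibitors that lower reporter luminescence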
# [18] = toxicity toward immortalized ovarian surface epithelium – cell-based, plate reader, dry powder samples, cytotoxicity control for PAX8 inhibitor project, dose response (AID 743045); type: functional
# [19] = OV-90 cell viability loss – plate reader, dry powder, SA8, PAX8 inhibitor project, dose response (AID 743149); type: functional, cell-based
# [20] = COV362 cell viability loss – plate reader, dry powder, SA12, cytotoxicity control for PAX8 inhibitor project, dose response (AID 743144); type: functional, cell-based
# [21] = IGROV1 cell killing – plate reader, dry powder samples, PAX8 inhibitor project, dose response (AID 743043); type: functional, cell-based; conditions: IGROV-1
# [22] = target: Paired box protein Pax-8 (Homo sapiens, UniProt Q06710); assay: PAX8 transcriptional activity inhibition in RMG-I – RMG-I cells, luciferase, cherry-pick, dose response (AID 687027); type: functional, cell-based;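 also: luciferase reporter driven by Pax8 target thyroperoxidase promoter measured by SteadyGlo luminescence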
# [23] = PAX8-dependent cell viability loss – plate reader, dry powder, dose response (AID 743049); type: functional, cell-based
# [24] = viability loss in HepG2 liver cells – cell-based, ATP luminescence, cherry-pick, set 6, cytotoxicity control, dose response (AID 1053125); type: functional
# [25] = target: Large T antigen (Simian virus 40, UniProt P03070); type: functional, Betapolyomavirus macacae;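 also: Confirmatory-stage PubChem screen for compounds that inhibit SV40 T antigen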
# [26] = cells; conditions: HEK293
# [27] = cells; conditions: A549
# [28] = target: Potassium channel subfamily K member 3 (Homo sapiens, UniProt O14649); assay: inhibition of human KCNK3 channel flux – CHO cells, FluxOR thallium flux, SAR follow-up (AID 652212); type: functional
# [29] = EF1alpha-driven Renilla reporter with control 3'UTR suppression – Clone20-Shn3RL cells, dual-Glo, cherry-pick, set 2, counter-screen for Shn3 3'UTR targeting project, dose response (AID 720724); type: functional, cell-based; conditions: Dual-Go Shn3RL
# [30] = Shn3 3'UTR reporter signal decrease – cell-based, Clone20 osteoblasts, firefly luciferase, cherry-pick, set 2, Schnurri-3 inhibitor project, dose response (AID 720490); type: functional;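 also: actives lower the luminescence signal as inhibitors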
# [31] = reduction of Shn3 3'UTR-driven luciferase in osteoblasts – cell-based, Clone20 osteoblasts, firefly luciferase, cherry-picked, dose response (AID 624132); type: functional;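 also: firefly luciferase luminescence from reporter carrying the Shn3 3'UTR in osteoblasts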
# [32] = non-specific 3'UTR reporter inhibition in Clone20-Shn3RL – cell-based, Renilla luciferase, cherry-picked, counter-screen for Shn3 inhibitor project, dose response (AID 624133); type: functional
# [33] = target: T1, Low molecular weight phosphotyrosine protein phosphatase (Homo sapiens, UniProt P24666); type: functional; conditions: read-out: IC50_Mean
# T1 sequence (P24666 whole entry): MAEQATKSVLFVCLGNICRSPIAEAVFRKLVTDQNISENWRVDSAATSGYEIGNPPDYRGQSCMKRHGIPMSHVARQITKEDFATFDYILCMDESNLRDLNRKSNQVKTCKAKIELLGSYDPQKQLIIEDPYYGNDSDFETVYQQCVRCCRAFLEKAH
# [34] = loss of viability in HepG2 cells – cell-based, CellTiter-Glo, cherry-picked, cytotoxicity control for Shn3 inhibitor project, dose response (AID 624134); type: functional
# [35] = target: T1, Low molecular weight phosphotyrosine protein phosphatase; type: functional; conditions: read-out: IC50_Mean; remark: listed apart in the source
# [36] = cells
# [37] = general mammalian cell viability loss – inhibitor set, cherry-pick, set 2, cytotoxicity control for miR-122 modulator project, dose response (AID 720697); type: functional, cell-based
# [38] = activation of miR-122 Renilla sensor silencing – cell-based, Huh7 psiCHECK-miR122, Renilla luciferase, cherry-picked, dose response (AID 651956); type: functional;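 also: huh7 hepatoma cells stably carrying a psiCHECK-2 miR-122 sensor plasmid; renilla luciferase signal reporting endogenous miR-122 activity after 48 h compound exposure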
# [39] = general mammalian cell viability loss – activator set, cherry-pick, cytotoxicity control for miR-122 modulator project, dose response (AID 720690); type: functional, cell-based;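 also: HEK293T human cells scored for general mammalian cytotoxicity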
# [40] = viability loss in MITF-independent A375 cells – cell-based, CellTiter-Glo luminescence, dry powder, set 2, counter-screen for MITF inhibitor project, dose response (AID 624489); type: functional; conditions: A-375;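 also: actives are compounds lowering A375 viability meaning general cytotoxicity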
# [41] = cytotoxicity in MITF-independent A375 cells – cell-based, CellTiter-Glo luminescence, dry powder, set 4, counter-screen for MITF inhibitor project, dose response (AID 624364); type: functional; conditions: A-375;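 also: A375 melanoma cells are MITF independent so this is a counter screen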
# [42] = target: NAD-dependent protein deacylase sirtuin-5, mitochondrial (Homo sapiens, UniProt Q9NXA8); assay: blockers of sirtuin-5 peptide desuccinylation – biochemical, fluorescence imaging, cherry-pick, set 6, dose response (AID 720597)
# [43] = target: Mu-type opioid receptor (Homo sapiens, UniProt P35372); assay: Late-stage results from the probe development effort to identify antagonists of OPRK1: luminescence-based cell-based dose response OPRM1 counterscreen.; type: functional
# [44] = target: Delta-type opioid receptor (Homo sapiens, UniProt P41143); assay: Late-stage results from the probe development effort to identify antagonists of OPRK1: fluorescence-based cell-based dose response OPRD1 counterscreen.; type: functional
# [45] = target: Caspase-6 (Homo sapiens, UniProt P55212); assay: inhibition of CASP6 peptide cleavage – biochemical, VEID-R110 fluorescence, cherry-pick, dose response (AID 720632)
# [46] = target: T2, Methionyl-tRNA synthetase, putative (Trypanosoma brucei brucei, UniProt Q38C91); type: functional, Trypanosoma brucei brucei strain 927/4 GUTat10.1
# T2 sequence (Q38C91 whole entry): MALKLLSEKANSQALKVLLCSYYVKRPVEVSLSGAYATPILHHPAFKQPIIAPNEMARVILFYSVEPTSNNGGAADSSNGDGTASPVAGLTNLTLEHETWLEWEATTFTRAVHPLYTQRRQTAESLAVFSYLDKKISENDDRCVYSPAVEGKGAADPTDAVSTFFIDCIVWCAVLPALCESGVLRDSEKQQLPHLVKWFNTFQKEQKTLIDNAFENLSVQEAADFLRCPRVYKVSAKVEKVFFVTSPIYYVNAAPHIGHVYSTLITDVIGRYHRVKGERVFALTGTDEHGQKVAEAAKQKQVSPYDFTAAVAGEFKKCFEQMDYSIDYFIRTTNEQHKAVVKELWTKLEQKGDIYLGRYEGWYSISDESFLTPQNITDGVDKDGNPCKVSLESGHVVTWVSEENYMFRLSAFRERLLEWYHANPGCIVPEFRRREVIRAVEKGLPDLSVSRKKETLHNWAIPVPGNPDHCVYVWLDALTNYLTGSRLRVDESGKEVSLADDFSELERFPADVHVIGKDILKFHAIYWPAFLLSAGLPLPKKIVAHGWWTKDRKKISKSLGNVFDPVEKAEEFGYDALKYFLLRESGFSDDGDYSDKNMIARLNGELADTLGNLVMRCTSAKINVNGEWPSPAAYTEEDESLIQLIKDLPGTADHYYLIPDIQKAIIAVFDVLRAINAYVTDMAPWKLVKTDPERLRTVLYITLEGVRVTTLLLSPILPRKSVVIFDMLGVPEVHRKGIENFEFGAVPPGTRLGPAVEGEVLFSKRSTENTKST
# [47] = Late stage counterscreen for inhibitors of Trypanosoma brucei methionyl tRNA synthetase (MetRS): Luminescence-based cell-based high throughput dose response assay to identify compounds that are cytotoxic to Jurkat human T lymphocyte cells.; type: functional
# [48] = Counterscreen for inhibitors of Trypanosoma brucei methionyl tRNA synthetase (MetRS): Luminescence-based cell-based high throughput dose response assay to identify compounds that are cytotoxic to Jurkat human T lymphocyte cells.; type: functional
# [49] = target: T2, Methionyl-tRNA synthetase, putative; type: functional, Trypanosoma brucei brucei strain 927/4 GUTat10.1; remark: listed apart in the source
# [50] = system: HEK293; assay: viability loss in HEK293T cells – cell-based, ATP luminescence, cherry-pick samples, cytotoxicity control, dose response (AID 687005); type: functional; conditions: Homo sapiens;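 also: cells exposed to compound for 48 hours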
# [51] = HEK293 Cytotoxicity Assay Measured in Cell-Based System Using Plate Reader - 7071-01_Inhibitor_Dose_CherryPick_Activity_Set2.; type: functional
# Paired box protein Pax-8, sequence (Q06710 whole entry): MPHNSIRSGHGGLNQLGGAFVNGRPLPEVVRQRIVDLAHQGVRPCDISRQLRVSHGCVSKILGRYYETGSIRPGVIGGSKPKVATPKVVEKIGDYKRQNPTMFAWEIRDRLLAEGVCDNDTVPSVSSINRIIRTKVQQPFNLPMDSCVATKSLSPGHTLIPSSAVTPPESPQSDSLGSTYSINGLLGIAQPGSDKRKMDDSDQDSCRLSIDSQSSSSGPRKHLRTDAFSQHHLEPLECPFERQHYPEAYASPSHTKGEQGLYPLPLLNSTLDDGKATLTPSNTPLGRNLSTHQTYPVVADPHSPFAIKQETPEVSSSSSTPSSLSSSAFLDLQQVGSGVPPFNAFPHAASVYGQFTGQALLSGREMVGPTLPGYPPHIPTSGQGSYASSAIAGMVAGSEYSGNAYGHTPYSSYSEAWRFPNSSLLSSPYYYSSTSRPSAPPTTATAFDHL
# Photoreceptor-specific nuclear receptor, sequence (Q9Y5X4 whole entry, the tested form may be a part): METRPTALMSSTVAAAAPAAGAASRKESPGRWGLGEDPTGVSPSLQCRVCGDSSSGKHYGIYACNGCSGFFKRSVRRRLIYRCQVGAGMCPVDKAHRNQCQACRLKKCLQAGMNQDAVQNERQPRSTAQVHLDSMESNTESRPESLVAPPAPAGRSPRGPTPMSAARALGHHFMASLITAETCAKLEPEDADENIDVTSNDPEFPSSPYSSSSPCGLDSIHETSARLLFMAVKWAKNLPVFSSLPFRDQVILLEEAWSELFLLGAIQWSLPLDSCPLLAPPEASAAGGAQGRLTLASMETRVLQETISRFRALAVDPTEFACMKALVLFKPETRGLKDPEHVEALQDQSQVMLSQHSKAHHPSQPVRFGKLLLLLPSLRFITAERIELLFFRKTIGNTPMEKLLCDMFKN
# Nonstructural protein 1, sequence (Q194T2 whole entry): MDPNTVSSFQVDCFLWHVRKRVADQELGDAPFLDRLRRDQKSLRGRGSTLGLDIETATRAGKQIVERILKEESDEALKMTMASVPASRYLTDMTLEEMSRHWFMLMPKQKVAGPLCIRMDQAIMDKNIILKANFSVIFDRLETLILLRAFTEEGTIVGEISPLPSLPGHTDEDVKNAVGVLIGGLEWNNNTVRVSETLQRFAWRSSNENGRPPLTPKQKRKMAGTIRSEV
# Caspase-6, sequence (P55212 24-179 limits assumed): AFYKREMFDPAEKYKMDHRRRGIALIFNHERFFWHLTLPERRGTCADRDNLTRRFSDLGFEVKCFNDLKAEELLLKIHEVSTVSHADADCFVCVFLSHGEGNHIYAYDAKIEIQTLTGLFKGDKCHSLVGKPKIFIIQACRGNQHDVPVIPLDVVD
# Caspase-6, sequence (P55212 194-293 limits assumed): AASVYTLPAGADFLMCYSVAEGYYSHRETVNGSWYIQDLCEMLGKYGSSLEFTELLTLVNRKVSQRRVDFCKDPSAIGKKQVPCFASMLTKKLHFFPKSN
# Serine/threonine-protein phosphatase PP1-alpha catalytic subunit, sequence (P62136 whole entry): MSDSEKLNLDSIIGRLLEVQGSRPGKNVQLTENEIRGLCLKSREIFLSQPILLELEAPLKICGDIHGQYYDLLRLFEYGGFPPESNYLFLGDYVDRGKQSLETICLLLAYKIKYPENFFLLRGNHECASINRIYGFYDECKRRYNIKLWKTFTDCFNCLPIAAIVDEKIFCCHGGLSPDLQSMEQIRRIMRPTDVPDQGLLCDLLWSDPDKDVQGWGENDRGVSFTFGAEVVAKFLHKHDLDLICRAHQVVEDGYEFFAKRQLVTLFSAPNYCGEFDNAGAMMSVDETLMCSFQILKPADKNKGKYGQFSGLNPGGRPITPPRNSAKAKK
# Serine/threonine-protein phosphatase, sequence (Q9BPW0 whole entry): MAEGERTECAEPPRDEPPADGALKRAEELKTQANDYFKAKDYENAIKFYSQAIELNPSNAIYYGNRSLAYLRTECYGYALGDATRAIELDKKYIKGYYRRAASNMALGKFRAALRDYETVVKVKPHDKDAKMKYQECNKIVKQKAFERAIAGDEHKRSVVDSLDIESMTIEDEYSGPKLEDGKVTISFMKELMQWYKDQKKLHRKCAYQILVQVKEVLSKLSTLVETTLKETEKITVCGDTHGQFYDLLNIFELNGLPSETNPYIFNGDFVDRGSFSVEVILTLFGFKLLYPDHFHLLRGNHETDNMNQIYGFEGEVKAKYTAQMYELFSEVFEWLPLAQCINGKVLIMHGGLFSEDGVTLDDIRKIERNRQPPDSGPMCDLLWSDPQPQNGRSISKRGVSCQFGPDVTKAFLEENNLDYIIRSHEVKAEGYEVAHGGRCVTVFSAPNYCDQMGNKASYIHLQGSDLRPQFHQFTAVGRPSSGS
# NAD-dependent protein deacylase sirtuin-5, mitochondrial, sequence (Q9NXA8 whole entry): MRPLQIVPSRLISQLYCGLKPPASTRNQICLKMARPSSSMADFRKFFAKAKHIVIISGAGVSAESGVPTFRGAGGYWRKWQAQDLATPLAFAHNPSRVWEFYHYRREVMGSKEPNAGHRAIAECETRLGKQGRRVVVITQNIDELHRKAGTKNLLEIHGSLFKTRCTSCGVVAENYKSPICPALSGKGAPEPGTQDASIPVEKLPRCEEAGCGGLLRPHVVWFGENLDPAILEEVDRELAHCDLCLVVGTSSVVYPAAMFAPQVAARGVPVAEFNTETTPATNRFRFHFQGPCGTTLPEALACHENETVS
# Large T antigen, sequence (P03070 whole entry): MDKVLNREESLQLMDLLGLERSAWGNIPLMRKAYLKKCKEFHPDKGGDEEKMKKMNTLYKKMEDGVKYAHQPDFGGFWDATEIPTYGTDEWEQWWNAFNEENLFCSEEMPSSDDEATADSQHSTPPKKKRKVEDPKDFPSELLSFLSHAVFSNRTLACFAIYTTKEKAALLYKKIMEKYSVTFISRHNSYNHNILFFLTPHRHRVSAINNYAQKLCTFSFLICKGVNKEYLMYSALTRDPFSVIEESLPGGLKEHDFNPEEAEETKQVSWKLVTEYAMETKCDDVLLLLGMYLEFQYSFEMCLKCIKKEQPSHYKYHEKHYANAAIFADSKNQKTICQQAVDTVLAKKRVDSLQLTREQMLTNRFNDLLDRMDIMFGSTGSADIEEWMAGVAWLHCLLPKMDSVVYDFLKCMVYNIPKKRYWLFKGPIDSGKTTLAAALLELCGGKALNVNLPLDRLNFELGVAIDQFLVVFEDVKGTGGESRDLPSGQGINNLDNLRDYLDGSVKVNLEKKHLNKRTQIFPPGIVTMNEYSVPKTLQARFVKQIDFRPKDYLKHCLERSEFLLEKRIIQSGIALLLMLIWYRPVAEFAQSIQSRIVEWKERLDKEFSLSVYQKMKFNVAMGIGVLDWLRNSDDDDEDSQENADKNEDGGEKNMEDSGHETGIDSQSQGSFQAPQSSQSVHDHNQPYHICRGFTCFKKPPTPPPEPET
# Delta-type opioid receptor, sequence (P41143 whole entry): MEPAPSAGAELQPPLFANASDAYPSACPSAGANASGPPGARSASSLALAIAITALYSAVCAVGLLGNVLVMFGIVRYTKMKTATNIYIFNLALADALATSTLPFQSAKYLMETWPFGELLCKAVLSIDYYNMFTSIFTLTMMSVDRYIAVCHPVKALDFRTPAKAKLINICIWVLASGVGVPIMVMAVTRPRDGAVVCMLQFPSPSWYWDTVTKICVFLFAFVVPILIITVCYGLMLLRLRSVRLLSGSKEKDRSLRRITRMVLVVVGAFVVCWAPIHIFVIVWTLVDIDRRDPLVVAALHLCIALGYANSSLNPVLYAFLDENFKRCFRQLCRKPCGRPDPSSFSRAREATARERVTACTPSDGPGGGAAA
# Potassium channel subfamily K member 3, sequence (O14649 whole entry): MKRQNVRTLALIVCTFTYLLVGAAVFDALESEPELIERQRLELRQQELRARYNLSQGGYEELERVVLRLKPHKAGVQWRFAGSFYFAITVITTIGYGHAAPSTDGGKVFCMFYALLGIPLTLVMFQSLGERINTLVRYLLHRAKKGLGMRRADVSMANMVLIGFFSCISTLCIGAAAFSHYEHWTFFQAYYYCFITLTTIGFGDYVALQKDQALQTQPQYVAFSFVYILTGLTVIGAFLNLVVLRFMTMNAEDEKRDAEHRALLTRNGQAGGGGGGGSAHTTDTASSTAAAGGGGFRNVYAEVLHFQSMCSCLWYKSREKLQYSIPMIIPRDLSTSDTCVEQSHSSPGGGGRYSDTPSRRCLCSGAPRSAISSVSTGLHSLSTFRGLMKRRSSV
# Mu-type opioid receptor, sequence (P35372 whole entry): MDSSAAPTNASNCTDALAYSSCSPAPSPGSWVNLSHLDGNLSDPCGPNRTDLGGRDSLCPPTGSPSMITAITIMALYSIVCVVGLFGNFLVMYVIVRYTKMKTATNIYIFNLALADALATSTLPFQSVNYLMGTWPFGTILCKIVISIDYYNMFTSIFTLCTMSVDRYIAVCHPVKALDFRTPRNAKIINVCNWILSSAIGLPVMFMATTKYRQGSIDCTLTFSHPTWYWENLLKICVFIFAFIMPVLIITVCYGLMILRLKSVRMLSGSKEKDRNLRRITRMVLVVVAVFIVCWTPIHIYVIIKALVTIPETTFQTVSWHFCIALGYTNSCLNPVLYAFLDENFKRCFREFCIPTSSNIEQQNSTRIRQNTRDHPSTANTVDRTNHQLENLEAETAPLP
smiles,measurement,setting,value
Nc1nc(-c2ccccn2)nc(N)c1Cc1ccc(Cl)cc1Cl,EC50,[1],3.52 µM (active)
same,EC50,[2],13.9 µM (active)
same,IC50,[3],4.53 µM (active)
same,AC50,[4],4.55 µM (active)
same,IC50,[5],5.11 µM (active)
same,IC50,[6],8.64 µM (active)
same,EC50,[7],13.5 µM (active)
same,EC50,[8],< 6 µM (inconclusive)
same,EC50,[9],> 350 µM (not active)
same,AC50,[10],> 52 µM (inactive)
same,IC50,[11],47.5 µM (not active)
same,EC50,[12],1.26 µM (active)
CCCNC(=O)N(C)C[C@H]1N[C@@H](CO)[C@@H]1c1ccc(C2=CCCCC2)cc1,AC50,[13],14.4 µM (active)
same,AC50,[14],6.07 µM (active)
same,AC50,[15],18.2 µM (active)
same,AC50,[16],8.91 µM (active)
same,AC50,[17],> 16 µM (inactive)
same,AC50,[18],25.9 µM (active)
same,AC50,[19],14.5 µM (active)
same,AC50,[20],10.7 µM (active)
same,AC50,[21],16.3 µM (active)
same,AC50,[22],3.47 µM (active)
same,AC50,[23],10.1 µM (active)
O=C(c1ccccc1)N1CCN(c2ccc(NCc3ccc4c(c3)OCO4)cc2)CC1,AC50,[24],> 52 µM (inactive)
same,IC50,[25],> 100 µM (active)
same,AC50,[26],20.2 µM (active)
same,AC50,[27],> 52 µM (inactive)
CCOc1ccccc1NC(=O)c1cccc(NC(=O)C2CCCO2)c1 (configuration not stated),IC50,[28],0.129 µM (active)
COCCNc1nc(NCc2ccc(C(C)C)cc2)c2sccc2n1,AC50,[29],33.2 µM (active)
same,AC50,[30],3 µM (active)
same,AC50,[31],3.95 µM (active)
same,AC50,[32],17.5 µM (active)
same,IC50,[33],13 µM (active)
same,AC50,[34],47.4 µM (active)
same,IC50,[35],24.5 µM (inactive)
CCN(CC)CCNC(=O)c1sc2nc(-c3ccccc3)cn2c1C,AC50,[36],57 µM (active)
CN1C(=O)c2cc(NC(=O)c3ccc(C(F)(F)F)cc3)ccc2OC[C@H]2O[C@H](CC(=O)NCc3ccc4c(c3)OCO4)CC[C@H]21,AC50,[37],0.571 µM (active)
same,AC50,[38],12.3 µM (active)
same,AC50,[39],28.4 µM (active)
O=C(NC1=C(N2CCCCC2)C(=O)c2ccccc2C1=O)c1ccccc1,AC50,[40],> 70 µM (inactive)
same,AC50,[41],54.4 µM (active)
Cc1ccc(S(=O)(=O)N(C)C[C@@H]2OCCCC[C@H](C)Oc3ccc(NS(=O)(=O)c4ccc(Cl)cc4)cc3C(=O)N([C@H](C)CO)C[C@H]2C)cc1,AC50,[42],> 30 µM (inactive)
same,AC50,[22],7.27 µM (active)
COC(=O)c1cc(Br)cnc1N1CCC(NC2CCCC2)CC1,IC50,[43],4 µM (active)
same,IC50,[44],7 µM (active)
CCO/C(O)=C1/C(C)=Nc2ccccc2N=C1NS(=O)(=O)c1cc(C(=O)O)ccc1Cl,AC50,[45],28.8 µM (active)
O=C(N/C(=C\c1cccnc1)c1nc2ccccc2[nH]1)c1cccc(Br)c1,IC50,[46],4.56 µM (active)
same,IC50,[47],> 83.3 µM (inactive)
same,IC50,[48],83.3 µM (inactive)
same,IC50,[49],8.16 µM (active)
Cc1ccc(S(=O)(=O)N2CC[C@@H]3[C@H](CO)Nc4ccc(-c5ccccc5F)cc4[C@@H]32)cc1,AC50,[50],44.6 µM (active)
same,AC50,[51],44.6 µM (active)

# — ChEMBL document CHEMBL1201862, “PubChem BioAssay data set” (2004)
